Results: ChEMBL document CHEMBL6177970, “Semisynthetic Derivatives of Perovskone: Development of a Promising Class of Antiprotozoal Lead Compounds” (J Nat Prod, 2025)

Legend:
[1] = system: Trypanosoma brucei rhodesiense; test: Antiprotozoal activity against Trypanosoma brucei rhodesiense STIB900 trypomastigotes measured after 72 to 74 hrs; type: functional, organism-based
Trypanosoma cruzi = test: Antiprotozoal activity against Trypanosoma cruzi Tulahuen C2C4 intracellular amastigotes measured after 96 hrs by inverted microscopy; type: functional, organism-based; settings: Tulahuen C2C4, 96 h
Leishmania donovani = test: Antileishmanial activity against axenically grown amastigotes Leishmania donovani MHOM-ET-67/L82 measured after 72 hrs by inverted microscopy; type: functional, organism-based; settings: MHOM-ET-67/L82, 72 h
Plasmodium falciparum = test: Antiplasmodial activity against Plasmodium falciparum NF54 intraerythrocytic forms measured after 72 hrs by 3H-hypoxanthine based liquid scintillation counting analysis; type: functional, organism-based
[2] = Cytotoxicity against rat myoblast L6 cells measured after 72 hrs by inverted microscopy; type: toxicity, cell-based
[3] = Selectivity index, ratio of IC50 for cytotoxicity against rat myoblast L6 cells to IC50 for antiprotozoal activity against Trypanosoma brucei rhodesiense STIB900 trypomastigotes; type: toxicity, cell-based; settings: read-out: Selectivity Index
[4] = Selectivity index, ratio of IC50 for cytotoxicity against rat myoblast L6 cells to IC50 for antiprotozoal activity against Trypanosoma cruzi Tulahuen C2C4 intracellular amastigotes; type: toxicity, cell-based; settings: read-out: Selectivity Index
[5] = Selectivity index, ratio of IC50 for cytotoxicity against rat myoblast L6 cells to IC50 for antileishmanial activity against axenically grown amastigotes Leishmania donovani MHOM-ET-67/L82; type: toxicity, cell-based; settings: read-out: Selectivity Index
[6] = Selectivity index, ratio of IC50 for cytotoxicity against rat myoblast L6 cells to IC50 for antiplasmodial activity against Plasmodium falciparum NF54 intraerythrocytic forms; type: toxicity, cell-based; settings: read-out: Selectivity Index

IC50 [1] | IC50 (Trypanosoma cruzi) | IC50 (Leishmania donovani) | IC50 (Plasmodium falciparum) | Compound | IC50 at 72 h [2] | selectivity ratio [3] | selectivity ratio [4] | selectivity ratio [5] | selectivity ratio [6]
24.4 µM | 12 µM | 4.8 µM | 0.8 µM | CC(C)C1=C2OC(C)(C)[C@@H]3CC4[C@@H](C)[C@H](B(F)F)C[C@@]5(CC[C@H]6C(C)(C)CCC[C@]67C[C@]45[C@@]23O7)C1=O (some centres undefined) | 35 µM | 1.4 | 2.9 | 7.3 | 43.8
32.1 µM | 15.6 µM | 27.2 µM | 0.89 µM | CC1=CC[C@]23CC[C@H]4C(C)(C)CCC[C@]45C[C@]24C1=C[C@H]1C(C)(C)OC(=C(C(C)C)C3=O)[C@@]14O5 | 23.9 µM | 0.7 | 1.5 | 0.9 | 26.8
10.1 µM | 8.4 µM | 6 µM | 0.08 µM | CC1=CC[C@]23CC[C@H]4C(C)(C)CCC[C@]45C[C@]24[C@@]1(O)C[C@H]1C(C)(C)OC(=C(C(C)C)C3=O)[C@@]14O5 | 6.9 µM | 0.7 | 0.8 | 1.1 | 80
25.8 µM | 33.3 µM | 41.2 µM | 2.6 µM | CC(C)C1=C2OC(C)(C)[C@@H]3CC4[C@H](C)[C@@H](O)C[C@@]5(CC[C@H]6C(C)(C)CCC[C@]67C[C@]45[C@@]23O7)C1=O (some centres undefined) | 136 µM | 5.3 | 4.1 | 3.3 | 53.1
24.4 µM | 7 µM | 0.44 µM | 5.6 µM | CC(C)C1=C2OC(C)(C)[C@@H]3CC4[C@H](C)[C@@H](OC(=O)CCC(=O)O)C[C@@]5(CC[C@H]6C(C)(C)CCC[C@]67C[C@]45[C@@]23O7)C1=O (some centres undefined) | 9.7 µM | 0.4 | 1.4 | 22 | 1.7
58.6 µM | 7.1 µM | 14.3 µM | 0.03 µM | CC1=C2C[C@H]3C(C)(C)OC4=C(C(C)C)C(=O)[C@@]5(C=C1)CC[C@H]1C(C)(C)CCC[C@]16C[C@]25[C@@]43O6 | 26.3 µM | 0.4 | 3.6 | 1.9 | 843
39 µM | 19 µM | 10 µM | 5.1 µM | CC(C)C1=C2OC(C)(C)[C@@H]3CC4[C@@H](C)[C@H](O)C[C@@]5(CC[C@H]6C(C)(C)CCC[C@]67C[C@]45[C@@]23O7)C1=O (some centres undefined) | 36.7 µM | 0.9 | 1.9 | 3.7 | 7.1

Compound | IC50 [1] | IC50 (Trypanosoma cruzi) | IC50 (Leishmania donovani) | IC50 (Plasmodium falciparum) | IC50 at 72 h [2] | selectivity ratio [3] | selectivity ratio [4] | selectivity ratio [5] | selectivity ratio [6]
O=C(Cn1ccnc1[N+](=O)[O-])NCc1ccccc1 [BENZNIDAZOLE] | – | 2.61 µM | – | – | – | – | – | – | –
